Results as given in ChEMBL document CHEMBL4431332, “Identification and Investigation of Novel Binding Fragments in the Fatty Acid Binding Protein 6 (FABP6)” (J Med Chem, 2016).

How the values were obtained:
[1] = target: T1, Gastrotropin (Homo sapiens, UniProt P51161); test: Binding affinity to recombinant human N-terminal His6 and Avi-tagged FABP6 expressed in Escherichia coli NEB cells by surface plasmon resonance method
T1 sequence (P51161 whole entry): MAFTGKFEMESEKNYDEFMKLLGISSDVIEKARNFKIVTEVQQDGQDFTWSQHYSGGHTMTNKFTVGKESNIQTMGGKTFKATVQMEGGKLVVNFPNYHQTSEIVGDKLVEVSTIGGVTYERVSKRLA

[2] = target: T2, Fatty acid-binding protein, liver (Homo sapiens, UniProt P07148); test: Binding affinity to recombinant human N-terminal His6 and Avi-tagged FABP1 expressed in Escherichia coli NEB cells by surface plasmon resonance method
T2 sequence (P07148 whole entry): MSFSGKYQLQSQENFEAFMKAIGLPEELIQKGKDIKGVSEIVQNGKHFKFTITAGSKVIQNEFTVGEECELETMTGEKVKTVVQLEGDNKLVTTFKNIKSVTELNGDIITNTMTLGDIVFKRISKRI

Kd [1] [µM] | Kd [2] [µM] | SMILES
400 | – | Cc1nc(Cn2cnc3cc(C)c(C)cc32)cs1
200 | 900 | Nc1c2c(nc3ccccc13)CCCC2 [TACRINE]
– | > 1000 | Cc1cc2nc(N)[nH]c2cc1C
300 | > 1000 | CS(=O)(=O)N1CCCC(NCc2ccccc2)CC1 (centres undefined)
290 | > 1000 | Cc1ccccc1CN1CCN(C(=O)c2cccnc2)CC1
210 | > 1000 | CN1CCN(C(=O)c2ccc(=O)n(Cc3ccc(Cl)cc3)c2)CC1
40 | > 1000 | O=C1NCCOc2ccc(F)cc21
13 | – | Nc1nc2ccc(C(=O)c3ccccc3)cc2[nH]1
300 | 300 | c1ccc(CNc2ccccn2)cc1
80 | > 1000 | COC(=O)c1cscc1-c1ccc(C(=O)N2CCOCC2)o1
210 | 400 | O=C(c1ccco1)N1CCN(Cc2ccc3c(c2)OCO3)CC1
